How the values were obtained:
[1] = test system: NIH-3T3 세포; assay: Peptide stability: storage at 40℃ in 50 mM Tris-HCl (pH 8.0), remaining activity by MTT assay; type: physicochemical; settings: 50 mM Tris-HCl pH 8.0, sampled at days 0-100, peptide 10 ㎍/ml, TGF-β1 1 ㎍/ml, Fig. 3
[2] = test system: C57BL/6 마우스의 멜라노사이트; assay: Melanin production in melanocytes induced with α-MSH; type: cell-based, mouse; settings: α-MSH 200 μg/ml; peptide 10 μg/ml; 3 days; Fig. 4
[3] = test system: 타이로시나아제; assay: Tyrosinase activity (L-DOPA, 405 nm) in lysate of B16F10 cells treated with α-MSH; type: cell-based, mouse; settings: peptide 1 and 10 μg/ml, 4 days, versus α-MSH alone, Fig. 6
[4] = test system: B16F10 세포; assay: Microscopic observation of melanosomes in B16F10 cells treated with α-MSH; type: cell-based, mouse; settings: α-MSH 200 μg/ml; peptide 10 μg/ml; 4 days; Fig. 7
[5] = test system: TRP1(tyrosinase-related protein-1); assay: RT-PCR of melanogenesis marker TRP1 in B16F10 cells treated with α-MSH; type: cell-based, mouse; settings: α-MSH plus peptide 10 μg/ml; 4 days; Fig. 8
[6] = test system: TRP2; assay: RT-PCR of melanogenesis marker TRP2 in B16F10 cells treated with α-MSH; type: cell-based, mouse; settings: α-MSH plus peptide 10 μg/ml; 4 days; Fig. 8
[7] = test system: MITF(microphthalmia-associated transcription factor); assay: RT-PCR of melanogenesis marker MITF in B16F10 cells treated with α-MSH; type: cell-based, mouse; settings: α-MSH plus peptide 10 μg/ml; 4 days; Fig. 8
[8] = test system: 프로콜라겐; assay: Procollagen production in NIH3T3 fibroblasts (ELISA); type: cell-based; settings: peptide 1 and 10 μg/ml, 72 h, Fig. 9
[9] = test system: 피브로넥틴; assay: Fibronectin production in NIH3T3 fibroblasts (ELISA); type: cell-based; settings: peptide 1 and 10 μg/ml, 72 h, Fig. 10
[10] = test system: HaCat 세포; assay: Cytotoxicity test, SRB colorimetry, HaCat cells; type: cell-based; settings: 10 ng/ml to 100 μg/ml, 72 h, Fig. 11
[11] = test system: NIH3T3 세포; assay: Cytotoxicity test, SRB colorimetry, NIH3T3 cells; type: cell-based; settings: 10 ng/ml to 100 μg/ml, 72 h, Fig. 11
[12] = test system: B16F10 세포주; assay: Cytotoxicity test, SRB colorimetry, B16F10 cells; type: cell-based; settings: 10 ng/ml to 100 μg/ml, 72 h, Fig. 11

Substance	remaining activity over storage time (stability) [1]	melanin production (visual) [2]	decrease of tyrosinase activity [3]	melanosomes induced by α-MSH (microscopy) [4]	TRP1 expression (RT-PCR) [5]	TRP2 expression (RT-PCR) [6]	MITF expression (RT-PCR) [7]	procollagen production [8]	fibronectin production [9]	cell number / cytotoxicity [10]	cell number / cytotoxicity [11]	cell number / cytotoxicity [12]
NH2-Gly-Arg-Gly-Asp-Tyr-Leu-Arg-Ser-Ala-Asp-Thr-OH (H-GRGDYLRSADT-OH) [서열2 펩타이드]	활성도가 오랫동안 지속됨	α-MSH를 처리하지 않았을 때와 유사한 멜라닌 생성	≥ 30%	사라지는	발현을 억제한다	발현을 억제한다	발현을 억제한다	우수한 프로콜라겐 생성 촉진능	우수한 피브로넥틴 생성 촉진능	세포 수의 감소는 전혀 관찰 되지 않았으며	세포 수의 감소는 전혀 관찰 되지 않았으며	세포 수의 감소는 전혀 관찰 되지 않았으며
재조합 TGF-β1: 대장균으로부터 생산된 재조합 TGF-β1(Sigma), control in the stability test	활성도가 급격히 감소됨	–	–	–	–	–	–	–	–	–	–	–
